Experimental data from patent US8207188B2, “Treatment of diseases modulated by a H4 receptor agonist” (priority 2006, dated 2012).
Entries after “also recorded” stand apart in the source; their conditions may differ.

How the values were obtained:
[1] = system: Mouse medullary cells C57B1/6 expressing H4R; assay: Proliferation of Colony Forming Cells (CFC) in semi-solid media; type: cell-based; conditions: 7 days; for inhibitory activity of cell proliferation (CFC): Example 20
Description: Using the assay described in Example 15, above, the effect of TRQ or CB on cells expressing H4R was tested. Mouse medullary cells C57B1/6 expressing H4R (50,000 cells/Petri dish) were incubated in a semi-solid media with haematopoietic growth factors (IL-3: 10 ng/ml) for 7 days with TRQ or CB.
Using the assay described in Example 15, above, the effect of TRQ or CB on cells expressing H4R was tested. Mouse medullary cells C57B1/6 expressing H4R (50,000 cells/Petri dish) were incubated in a semi-solid media with haematopoietic growth factors (IL-3: 10 ng/ml) for 7 days with a TRQ (racemic mixture of RR and SS isomers at 1 μM and 10 μM concentration); TRQ isomer E1 (10 μM concentration); TRQ isomer E2 (10 μM concentration) and CB (10 μM concentration).

[2] = system: Mouse C57B1/6 Haematopoietic stem cells; assay: G0/G1 cell cycle of sorted haematopoietic stem cells, 2 h incubation (Example 17); type: cell-based; conditions: 2 hours incubation with growth factors
Description: Mouse C57B1/6 Haematopoietic stem cells were enriched with bone marrow cells by magnetic sorting. Only cells expressing surface tyrosine kinase were sorted. Cells were incubated for 2 hours with growth factors (IL-3 10 ng/ml, IL-6 10 ng/ml, SCF 50 ng/ml) and TRQ and its enantiomers, E1 and E2.
After 2 hours of incubation, cells were washed and incubated with […] for 30 minutes read by FACS scan.

[3] = system: Mouse medullary cells C57B1/6 expressing H4R; assay: Percentage of cells at G0/G1 phase, TRQ racemate and enantiomers with and without CB (Example 21); type: cell-based
Description: This experiment was conducted at two concentrations for all TRQ molecules (10 μM and 1 μM) in the presence and absence of CB (10 μM).
Using the assay described in Example 15, above, the effect of TRQ or CB on cells expressing H4R was tested. Mouse medullary cells C57B1/6 expressing H4R (50,000 cells/Petri dish) were incubated in a semi-solid media with haematopoietic growth factors such as IL-3 (10 ng/ml) for 7 days with a TRQ (racemic mixture of RR and SS isomers at 1 μM and 10 μM concentration); purified TRQ isomer E1 (10 μM and 1 μM concentration); purified TRQ isomer E2 (10 μM and 1 μM concentration) and CB (10 μM concentration). […] Similar results were shown with the purified TRQ isomers. In each experiment cells were incubated in the presence of growth factors (GF, FIG. 15).

[4] = molecular target: T1, Organic Cation Transporter-3 (OCT-3) (Mus musculus, UniProt Q9WTW5); assay: Histamine uptake by bone marrow cells; type: cell-based, murine
T1 construct: from tissue; host or cells: total bone marrow cells
T1 sequence (Q9WTW5 1-551): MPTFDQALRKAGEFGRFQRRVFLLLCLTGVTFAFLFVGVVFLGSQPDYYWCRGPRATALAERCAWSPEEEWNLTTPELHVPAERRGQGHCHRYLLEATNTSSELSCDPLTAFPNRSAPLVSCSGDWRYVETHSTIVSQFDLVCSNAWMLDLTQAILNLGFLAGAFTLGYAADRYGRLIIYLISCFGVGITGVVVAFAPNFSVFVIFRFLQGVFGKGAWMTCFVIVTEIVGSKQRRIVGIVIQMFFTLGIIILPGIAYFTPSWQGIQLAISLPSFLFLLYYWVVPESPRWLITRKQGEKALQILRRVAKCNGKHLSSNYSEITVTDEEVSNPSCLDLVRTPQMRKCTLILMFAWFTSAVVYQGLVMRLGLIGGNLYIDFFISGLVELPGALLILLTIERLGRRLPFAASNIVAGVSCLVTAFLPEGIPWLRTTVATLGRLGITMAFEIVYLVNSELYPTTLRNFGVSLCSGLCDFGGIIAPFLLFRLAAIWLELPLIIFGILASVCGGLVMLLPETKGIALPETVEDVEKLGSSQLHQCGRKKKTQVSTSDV
Description: Cell cultures. Bone marrow (BM) cells were prepared as reported (Schneider, et al. J. Immunol. 139:3710-717) and adjusted to a final concentration of 2.5×10^6 per ml in culture medium (MEM) supplemented with 10% horse serum. Various doses (10^−5-10^−7 M) of Clobenpropit or Tritoqualine were added shortly before the addition of IL-3 (1 ng/ml), followed by a 24-h incubation at 37° C., 5% CO2.
Cytokine assays, measurement of histamine production, and uptake. IL-6 and IL-4 production was measured in cell supernatants recovered after a 24-h incubation. Histamine was quantified by an automated continuous flow spectrofluorometric technique (Schneider, et al. J. Immunol. 139:3710-717). For binding experiments, 10^6 total BM cells were plated in round-bottomed 96-well polypropylene plates (Costar). Unless stated otherwise, the cells were incubated (37° C., 5% CO2) for 3 h with 3 μCi/ml of [^3H]histamine dihydrochloride (2.5×10^−7 M; 12 Ci/mmol) in a final volume of 100 μl. Competition assays were performed as previously described (Corbel, S., et al. 1995. Blood. 86:531-539; Corbel, S., et al. 1995, FEBS Lett. 404:289-293). Each experiment was performed in triplicate, and histamine binding was calculated from total cpm after subtraction of nonspecific binding to filters.

[5] = molecular target: T2, Serotonin Transporter (SERT) (Mus musculus, UniProt Q60857); assay: Serotonin uptake by bone marrow cells; type: cell-based, murine
T2 construct: from tissue; host or cells: total bone marrow cells

[6] = 10 μM, compared to control (GF only)

T2 sequence (Q60857 whole entry): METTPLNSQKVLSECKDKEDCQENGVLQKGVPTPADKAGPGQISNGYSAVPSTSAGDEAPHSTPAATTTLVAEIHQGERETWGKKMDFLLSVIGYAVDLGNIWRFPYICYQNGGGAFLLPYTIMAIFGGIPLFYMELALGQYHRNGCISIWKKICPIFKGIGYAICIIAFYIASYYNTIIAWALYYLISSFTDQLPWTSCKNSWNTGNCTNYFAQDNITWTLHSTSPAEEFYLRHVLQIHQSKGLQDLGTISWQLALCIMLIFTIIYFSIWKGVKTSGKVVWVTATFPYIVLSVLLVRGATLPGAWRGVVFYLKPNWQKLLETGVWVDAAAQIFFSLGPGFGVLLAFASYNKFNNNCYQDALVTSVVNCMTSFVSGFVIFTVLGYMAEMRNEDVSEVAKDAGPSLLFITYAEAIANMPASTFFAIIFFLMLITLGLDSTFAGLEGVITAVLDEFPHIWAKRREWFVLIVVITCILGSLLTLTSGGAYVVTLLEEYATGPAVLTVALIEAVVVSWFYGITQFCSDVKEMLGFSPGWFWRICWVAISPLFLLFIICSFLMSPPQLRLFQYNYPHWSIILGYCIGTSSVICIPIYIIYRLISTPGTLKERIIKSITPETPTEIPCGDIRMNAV

Structure (SMILES) | inhibition of proliferation of CFC ([1]; Example 16, 10 μM, IL-3 10 ng/ml, listed as TRQ) | inhibitory activity of cell proliferation (CFC) ([1]; 1 μM) | inhibition of G0/G1 phase [2] | percentage of cells at the G0/G1 phase / inhibitory activity of cell proliferation ([3]; 1 μM, listed as TRQ) | percentage of cells at the G0/G1 phase / inhibitory activity of cell proliferation ([3]; 1 μM, listed as racemic TRQ) | percentage of cells at the G0/G1 phase / inhibitory activity of cell proliferation [3, 6] | effect on biogenic monoamine uptake by OCT-3 ([4]; listed as TRQ) | effect on biogenic monoamine uptake by SERT ([5]; listed as TRQ) | inhibitory activity of cell proliferation (CFC) ([1]; 10 μM) | percentage of cells at the G0/G1 phase / inhibitory activity of cell proliferation ([3]; 1 μM) | inhibition of histamine uptake ([4]; 1 μM) | inhibition of histamine uptake ([4]; 10 μM) | inhibition of serotonin uptake ([5]; 1 μM) | inhibition of serotonin uptake ([5]; 10 μM)
CCOc1c(N)c2c(c(OCC)c1OCC)C(C1c3c(cc4c(c3OC)OCO4)CCN1C)OC2=O (racemic) [Tritoqualine, 7-Amino-4,5,6-triethoxy-3-(5,6,7,8-tetrahydro-4-methoxy-6-methyl-1,3-dioxolo[4,5-g]isoquinolin-5-yl) phthalide] | more potent inhibitor of cell proliferation than the Clobenpropit | less inhibitory activity in comparison to 10 μM CB | approximately 50% | also increased the percentage of cells at the G0/G1 phase | less inhibitory activity in comparison to 10 μM CB | also increased the percentage of cells at the G0/G1 phase | do not significantly alter; also recorded: does not affect | do not significantly alter; also recorded: does not affect |  |  |  |  |  | 
CCOc1c(N)c2c(c(OCC)c1OCC)[C@H]([C@H]1c3c(cc4c(c3OC)OCO4)CCN1C)OC2=O [E1] |  |  | approximately 50% |  |  | slightly more potent than isomer E2 |  |  | slightly more potent than isomer E2 | higher percentage of cells at the G0/G1 phase than the racemic TRQ | negligible | greatly reduced | negligible | greatly reduced
CCOc1c(N)c2c(c(OCC)c1OCC)[C@@H]([C@@H]1c3c(cc4c(c3OC)OCO4)CCN1C)OC2=O [E2] |  |  | 57% |  |  | exerted inhibitory activity of cell proliferation |  |  | exerted inhibitory activity of cell proliferation | higher percentage of cells at the G0/G1 phase than the racemic TRQ | negligible | greatly reduced | negligible | greatly reduced
